Converted amounts (≈) assume the structure as drawn. Where a SMILES comes first, the peptide text is derived from it.
Tests used:
B. cenocepacia AU24362 = test system: B. cenocepacia AU24362; parameters: method as in PMID 35802499; conditions: spot-on-lawn assay; cited from earlier work
From the text: (§1) We proceeded to test the antimicrobial activity of the selected variants against two clinical isolates of the Bcc, B. cenocepacia AU0756 and B. cenocepacia AU24362, in broth microdilution assays. […] We revisited these measurements using broth microdilution assays following the Clinical & Laboratory Standards Institute (CLSI) standard.

E. coli MC1061 = assay: Colony-forming units of E. coli MC1061 pUboABC after IPTG induction; type: cell-based; conditions: wild-type uboA induced, no uboD, three biological replicates
Method: E. coli MC1061 pUboABC and E. coli MC1061 pUboBC cultures were grown. Aliquots of the cultures were sampled prior to and after induction with 10 μM IPTG and 100 μM IPTG, and 10-fold serial dilutions were plated. Colonies were counted 16 h after incubation. […]
fold serial dilutions were spotted onto LB plates supplemented with 100 μ g/m L ampicillin and 0.2% w/v glucose. Plates were incubated for 16 hours at 37 °C before imaging.
Colony- Forming Units of E. coli MC1061 pUboABC and E. coli MC1061 pUboBC pUboABC and pUboBC were transformed into electrocompetent E. coli MC1061, plated onto LB plates supplemented with 100 μ g/ m L ampicillin and 0.2% w/v glucose, and incubated at 37 °C for 16 hours. Single colonies were inoculated into LB media supplemented with 100 μ g/ m L ampicillin and 0.2% w/v glucose and shaken at 37 °C for 16 hours. These cultures were then sub-cultured to an OD600 of 0.02 into 50 mL of LB media supplemented with 100 μg/mL ampicillin in a 250 mL flask. Ten-fold serial dilutions of the culture were plated onto LB plates supplemented with 100 μ g/ m L ampicillin and 0.2% w/v glucose. […] All plates were incubated at 37 °C for 16 hours, after which the number of colonies was counted. […]
A small quantity of DNA was used to reduce the probability of two plasmids being transformed into the same cell. […]

B. cenocepacia AU0756 = test system: B. cenocepacia AU0756; parameters: method as in PMID 35802499; conditions: spot-on-lawn assay; cited from earlier work
From the text: as §1

CC[C@H](C)[C@@H]1NC(=O)[C@H](CO)NC(=O)CNC(=O)[C@H](CC(=O)O)NC(=O)CNC(=O)CNC(=O)CC[C@@H](C(=O)N[C@@H](Cc2ccc(O)cc2)C(=O)N[C@@H](Cc2ccccc2)C(=O)N[C@@H](CC(N)=O)C(=O)N[C@@H](CCCNC(=N)N)C(=O)N2CCC[C@H]2C(=O)N[C@@H](CCSC)C(=O)N[C@@H](Cc2c[nH]cn2)C(=O)N[C@H](C(=O)N[C@@H](Cc2c[nH]cn2)C(=O)N[C@@H](CC(=O)O)C(=O)N[C@@H](Cc2c[nH]c3ccccc23)C(=O)N[C@@H](CCC(N)=O)C(=O)N[C@H](C(=O)N[C@@H](CCSC)C(=O)N[C@@H](CC(=O)O)C(=O)N[C@@H](CO)C(=O)NCC(=O)N[C@@H](Cc2ccc(O)cc2)C(=O)N[C@@H](Cc2ccc(O)cc2)C(=O)NCC(=O)O)[C@@H](C)CC)[C@@H](C)CC)NC(=O)[C@H](C)NC1=O [WT, ubonodin] (HELM PEPTIDE1{G.G.D.G.S.I.A.E.Y.F.N.R.P.M.H.I.H.D.W.Q.I.M.D.S.G.Y.Y.G}$PEPTIDE1,PEPTIDE1,1:R1-8:R3$$$V2.0; C-terminus assumed)
MIC against strain AU24362 (B. cenocepacia AU24362): 20 µM (≈ 64 µg/mL) | Reduction in viable cell concentration (CFU per mL) after IPTG induction (E. coli MC1061): 3 log | MIC against strain AU0756 (B. cenocepacia AU0756): 10 µM (≈ 32 µg/mL)

— paper PMC10037499, “High-Throughput Screen Reveals the Structure–Activity Relationship of the Antimicrobial Lasso Peptide Ubonodin” (ACS Central Science, 2023)
